Measured values from patent US12115154B2, “Compounds for the modulation of proprotein convertase subtilisin/kexin type 9 (PCSK9)” (SRX Cardio, LLC, priority 2020, dated 2024).

Assays:
PCSK9 = target: T1, PCSK9 (Homo sapiens, UniProt Q8NBP7); test: Biodesy Direct Binding Measurement (second harmonic generation); conditions: Biodesy Delta System
T1 construct: purchased Cayman Chemical 20631; host or cells: added to HepG2, HuH7, FL83B or shPCSK9 knock-down lines
Source text: The compounds of the present disclosure may be tested for binding to, inhibition of, and/or modulation of PCSK9 activity according to the following protocols.
Direct binding can be measured using the commercially available Biodesy Delta System (BDS, http://www.biodesy.com/products/; accessed Aug. 1, 2018). The BDS is a laser-based approach that utilizes second harmonic generation from a labeled protein to detect ligand binding, the method of which is covered and described by U.S. Pat. Nos. 9,395,358 and 8,932,822, and has been commercialized by Biodesy Inc. (South San Francisco, Calif.).

[1] = In vivo PK in mice (IV and PO); conditions: male, C57BL/6, mouse, plasma, 3 mg/kg IV versus 15 mg/kg PO, read-out: oral bioavailability (F %)
Procedure: (§1) A representative compound (Compound 1041) was tested for oral bioavailability and efficacy in mice. Male C57BL/6 mice were purchased from Taconic Biosciences (Rensselaer, New York) and housed under standard conditions with the exception of being provided a high fat diet (#TD.90221, Envigo, Madison, Wis.) and water ad libitum. Following 4 weeks of diet acclimation the animals were then dosed with compound or vehicle as control specimens. Compound readily dissolved at 1.5 mg/ml in a 1% Tween-80 aqueous solution with 10-15 minutes sonication. This solution was used at the 1.5 mg/ml concentration for oral (PO) dosing or further diluted with sterile saline for intravenous (IV) dosing.
Test animals received a single dose at 3 mg/kg by IV or 15 mg/kg by PO while control animals received an equal volume of vehicle control by IV or PO, respectively. Plasma samples were collected at 0.25, […], 1, 2, 3, 6, 8, 24, and 48 hours while liver specimens were collected at 8, 24, and 48 hours and drug concentration were measured by LC-MS/MS per standard protocols.
In brief, blood was immediately centrifuged, and the resulting plasma was frozen and stored at −80° C. until analysis. […] Compound concentrations were determined by a liquid chromatography-mass tandem spectrometry (LC-MS/MS) per routine method (Quintana Discovery, Hayward, Calif.) following the standard protocol. […]

Male C57BL/6 mice [2] = test: In vivo efficacy: serum LDL in high fat diet mice; conditions: for reduction in LDL: daily PO 15 mg/kg
Procedure: as §1
[…] Plasma samples were collected at 0.25, […], 1, 2, 3, 6, 8, 24, and 48 hours while liver specimens were collected at 8, 24, and 48 hours and drug concentration were measured by LC-MS/MS per standard protocols.
Serum lipid levels were measured using commercially available veterinary health testing services provided by IDEXX BioAnalytics (North Grafton, Mass.). Blood specimens were collected from the animals and the resulting serum was frozen and stored at −80° C. until analysis. Specimens were measured using the commercial service's standard procedures for the Rodent Lipid Panel (Test Code #6290).

[3] = Dissolution in dosing solution; format: physicochemical; conditions: 1% Tween-80 aqueous solution, 10-15 minutes sonication
Procedure: as §1

Male C57BL/6 mice [4] = test: Liver panel (animal health) in high fat diet mice; format: in vivo
Procedure: as §1
To assess animal health following compound exposure, a liver panel (Test Code #60405) was tested by IDEXX BioAnalytics (North Grafton, Mass.). […] Also of note, AST and ALT levels in the liver panel were elevated in the PO vehicle, which is attributed to the high fat diet used in the study (Envigo, #TD.90221).

[5] = daily 15 mg/kg PO, 72-hour group, versus vehicle control

T1 sequence (Q8NBP7 153-692): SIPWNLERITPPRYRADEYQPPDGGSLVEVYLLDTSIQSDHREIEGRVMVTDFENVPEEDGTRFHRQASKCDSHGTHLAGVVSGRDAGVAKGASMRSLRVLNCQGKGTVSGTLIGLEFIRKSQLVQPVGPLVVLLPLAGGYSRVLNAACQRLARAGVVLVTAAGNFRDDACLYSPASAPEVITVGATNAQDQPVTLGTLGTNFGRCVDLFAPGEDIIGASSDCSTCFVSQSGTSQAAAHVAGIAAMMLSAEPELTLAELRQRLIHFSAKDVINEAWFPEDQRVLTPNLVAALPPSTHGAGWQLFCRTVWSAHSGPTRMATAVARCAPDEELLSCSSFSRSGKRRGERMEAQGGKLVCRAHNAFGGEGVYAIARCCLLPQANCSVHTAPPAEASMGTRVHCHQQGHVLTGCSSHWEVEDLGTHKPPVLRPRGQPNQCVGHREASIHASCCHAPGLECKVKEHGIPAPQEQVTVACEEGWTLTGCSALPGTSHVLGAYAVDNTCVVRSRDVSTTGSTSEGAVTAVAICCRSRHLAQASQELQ

Structure (SMILES)	ASHG (PCSK9)	bioavailability [1]	reduction in LDL (Male C57BL/6 mice [2]; at 48 hours (dosed at t=0 and t=24 hours))	reduction in LDL (Male C57BL/6 mice [2]; at 72 hours (dosed at t=0, t=24, t=48 hours))	reduction in LDL relative to IV vehicle control group (Male C57BL/6 mice [2]; single 3 mg/kg IV dose, 48 hours after dosing)	reduction in LDL relative to PO vehicle control group (Male C57BL/6 mice [2]; single 15 mg/kg PO dose, 48 hours after dosing)	concentration readily dissolved [3]	reduction in ALT levels (Male C57BL/6 mice [4]; [5])	reduction in AST levels (Male C57BL/6 mice [4]; [5])	liver panel toxicity (Male C57BL/6 mice [4]; three daily 15 mg/kg PO doses, 72 hours, versus PO vehicle)
Fc1ccc(-c2ccc(C3CCCN(CC4CC4)C3)cc2)cc1 (stereo not shown) [Compound 1.001, 1-(cyclopropylmethyl)-3-(4′-fluoro-[1,1′-biphenyl]-4-yl)piperidine]	> 10%									
Cc1cc(-c2ccc(F)cc2)ccc1C1CCCN(C2CCCC2)C1 (stereo not shown) [Compound 1.041, 1-cyclopentyl-3-(4′-fluoro-3-methyl-[1,1′-biphenyl]-4-yl)piperidine]		44%	32%	50%	19%	32%	≥ 1500 µg/mL	77.7%	72.1%	no overt toxicity
